Where no end group is shown, it is not given here. [ ]: non-standard residue; d: D form. SulfoLink = iodoacetyl-modified agarose resin; Mpa = O=C(O)CCS
Experiments:
HopTPR2A–HSP90CTD PPI = assay: ELISA-based solid-phase HopTPR2A–HSP90CTD PPI inhibitory assay; type: biochemical; details: SAR, Figures 2 and 3; peptide 1 as control
HSP90 = assay: Pulldown from HeLa cell lysates with resin-supported peptides, Western blot for HSP90; type: binding; details: full-length Hop IP experiments
Hop = assay: Pulldown from HeLa cell lysates with resin-supported peptides, Western blot for Hop; type: binding; details: incubated overnight with resin-supported peptide, densitometry
KSHV vIRF3 = type: cell-based
CDK4 = assay: Western blot of HSP90 client CDK4 in reactivated TREx-BCBL-1-RTA cells; type: cell-based; details: Figures 7C and S4
Procedure: The remaining TREx-BCBL-1-RTA cells (after cell viability assay) were harvested and washed twice with ice-cold PBS (pH 7.4). […] Bicinchoninic acid (BCA) protein quantification assay was used to determine the concentration of protein in the lysates. An equal amount of protein samples was denatured in Laemmli SDS loading buffer at 95 °C for 5 min. An equal volume of the denatured protein samples was resolved by SDS-PAGE and transferred to nitrocellulose membranes using the complete Bio-Rad Trans-Blot Turbo Transfer System (Bio-Rad, California). […] The membranes were incubated in an appropriate primary antibody. The primary antibodies used in this study were mouse anti-ORF57 (207.6) monoclonal antibody (Santa Cruz Biotechnology, sc-135746), mouse […]) monoclonal antibody (Novus Biologicals, NB200-167SS), rabbit anti-Hop monoclonal antibody (Abcam, ab126724), mouse anti-Hsp90α/β (F-8) monoclonal antibody (Santa Cruz, sc-13119), anti-CDK4 antibody [EPR4513-32-7] (Abcam, Ab108357), rabbit anti-β-actin [EPR2124] monoclonal antibody (Abcam, Ab213262), and HRP-conjugated anti-GAPDH antibody (EPR6256) (Abcam, ab185059). The membranes were washed three times using TBST and incubated in an appropriate secondary antibody. […]

[1] = tested on: KSHV-infected TREx-BCBL-1-RTA cells

Substance: LWWPD [Peptide 12]
- HopTPR2A–HSP90CTD PPI disruption activity (in words) (HopTPR2A–HSP90CTD PPI): weak to moderate activity

Substance: IP-5: weakly active peptide 5 immobilized on SulfoLink resin, control (SulfoLink-[Mpa]MEDVE)
- HSP90 in elution after pulldown (HSP90): not observed
- Hop in elution after pulldown (Hop): only trace amounts of Hop

Substance: CPP-MAAVD (disulfide) [CPP-19]
- vIRF3 expression, dose-dependent analysis (KSHV vIRF3): no effect on either
- Levels of HSP90 client CDK4 (CDK4): same effect was not seen
- ORF57 expression, dose-dependent analysis (KSHV ORF57): no effect on either
- Cytotoxicity [1]: negligible cytotoxicity
